{"source": "patent US5525598A", "about": "“Gallium (III) complexes in pharmaceutical compositions” (Collery; Phillippe, priority 1991, dated 1996)", "key": {"[1]": {"tested_on": "human immunodeficiency virus (HIV-1)", "assay": "Anti-HIV-1 activity, protection of T4 lymphocytes from killing by virus (NCI XTT assay)", "format": "cell-based", "description": "(§1) The gallium (III) complexes were screened for anti-HIV-1 activity at the National Cancer Institute, Bethesda, Md., as part of their in vitro Anti-AIDS Drug Discovery Program. The assay is based on the killing (cytopathic effect) of T4 lymphocytes by human immunodeficiency virus (HIV-1) and is designed to evaluate the drug effects at any stage of the virus reproductive cycle. […] All tests are compared with a positive control done at the same time and under identical conditions employing 3'-Azido-3'-deoxythymidine (AZT).\n(§2) The general procedure is reprinted below from NCI infomation sheets:\n(§3) 1. Candidate agent is dissolved in dimethylsulfoxide, then diluted 1:2000 in cell culture medium. […] dilutions (half-log10) are prepared before adding to 96-well microtiter plated.\n(§4) 2. T4 lymphocytes (CEN cell line) are exposed to HIV at a virus-to-cell ratio of approximately 0.05 and are plated along with noninfected control cells into drug-containing wells or wells with medium alone.\n(§5) 3. Cultures are incubated at 37° C. in a 5% carbon dioxide atmosphere for 6 days.\n(§6) 4. The tetrazolium salt, XTT, is added to all wells, and cultures are incubated to allow formazon colour development by viable cells.\n(§7) 5. Individual wells are analysed spectrophotometrically to quantitate formazon production and, in addition, are viewed microscopically for detection of viable cells and confirmation of protective activity.\n(§8) 6. Drug-treated virus-infected cells are compared with drug-treated noninfected cells and with other appropriate controls (untreated infected and untreated noninfected cells, drug-containing wells without cells, etc.) on the same plate.\n(§9) 7. Data reviewed in comparison with other tests done at the same time, and a determination about activity is made."}, "T4 lymphocytes [2]": {"tested_on": "T4 lymphocytes", "assay": "Drug effect on noninfected T4 lymphocytes (NCI XTT assay), IC50", "format": "cell-based", "description": "as §1, §2, §3, §4, §5, §6, §7, §8, §9"}, "[3]": {"settings": "per os, aqueous formulation, therapeutical dosages; EP-B1-0059148; cited from earlier work"}, "P-388 leukaemia": {"tested_on": "P-388 leukaemia", "assay": "Antitumor activity, P-388 leukaemia, survival T/C", "format": "in vivo", "settings": "P 388 system"}, "sarcoma 180": {"tested_on": "sarcoma 180", "settings": "sarcoma 180 system", "experimental": "The gallium complexes were administered to animals bearing the P-388 leukaemia or the sarcoma 180 system and the average survival time (T) of the treated animals was compared with the average survival of control animals C. A high value T/C is characteristic of an antitumoral activity. [formula]"}, "[4]": {"tested_on": "human immunodeficiency virus (HIV-1)", "settings": "cited from earlier work; for EC50: read-out: EC50 (anti-HIV activity)"}, "T4 lymphocytes [5]": {"tested_on": "T4 lymphocytes", "settings": "cited from earlier work"}, "[6]": {"tested_on": "experimental animal tumors", "settings": "Adamson et al. 1975; cited from earlier work"}, "refractory lymphomas": {"tested_on": "refractory lymphomas", "settings": "phase II trials, patients with refractory lymphomas; Foster et al. 1986; cited from earlier work"}, "[7]": {"tested_on": "reverse transcriptase of Rauscher murine leukemia virus", "settings": "in vitro; Waalkes et al. 1974; cited from earlier work"}, "[8]": {"settings": "CEM-SS, values from O. S. Weislow et al."}, "[9]": {"settings": "CEM, values from R. Vince et al."}}, "note": "Read-outs that look alike come from different tables or passages of the source.", "data": [{"compound": "Cc1ccn[nH]1.Cc1ccn[nH]1.Cc1ccn[nH]1.Cc1ccn[nH]1.[Cl-].[Cl-].[Cl][Ga-]([Cl])([Cl])[Cl].[Ga+3]", "note": "[[(3-mpyr)4 GaCl2]GaCl4, trans-Dichlorotetrakis-(5-methylpyrazole)gallium (III) tetrachlorogallate (III)]", "values": [{"measurement": "EC50", "setting": "[1]; CEM-6", "value": 108, "unit": "µM"}, {"measurement": "TI = IC50 /EC50", "setting": "[1]; CEM-6", "value": 1.52}, {"measurement": "IC50", "setting": "T4 lymphocytes [2]; CEM-6", "value": 164, "unit": "µM"}]}, {"compound": "[Cl-].[Cl-].[Cl-].[Ga+3]", "note": "[GaCl3, gallium (III) chloride]", "values": [{"measurement": "renal toxicity", "setting": "[3]", "value": "no renal toxicity"}]}, {"compound": "Cc1cn[nH]c1.Cc1cn[nH]c1.Cc1cn[nH]c1.Cc1cn[nH]c1.[Cl-].[Cl-].[Cl][Ga-]([Cl])([Cl])[Cl].[Ga+3]", "note": "[[(4-mpyr)4 GaCl2]GaCl4, trans-Dichlorotetrakis-(4-methylpyrazole)gallium(II) tetrachlorogallate(III)]", "values": [{"measurement": "EC50", "setting": "[1]; CEM-6", "value": 231, "unit": "µM"}, {"measurement": "TI = IC50 /EC50", "setting": "[1]; CEM-6", "value": 1.11}, {"measurement": "EC50", "setting": "[1]; CEM-IW", "value": 50.2, "unit": "µM"}, {"measurement": "TI = IC50 /EC50", "setting": "[1]; CEM-IW", "value": 3.92}, {"measurement": "IC50", "setting": "T4 lymphocytes [2]; CEM-6", "value": 256, "unit": "µM"}, {"measurement": "IC50", "setting": "T4 lymphocytes [2]; CEM-IW", "value": 197, "unit": "µM"}]}, {"compound": "Dichloro-(2-α-oxybenzylbenzimidzoiato-N,O)gallium(III) [(HBB)GaCl2]", "values": [{"measurement": "T/C (survival time of treated versus control animals)", "setting": "P-388 leukaemia", "value": 130, "unit": "%"}, {"measurement": "EC50", "setting": "[1]; CEM-IW", "value": 43, "unit": "µM"}, {"measurement": "TI = IC50 /EC50", "setting": "[1]; CEM-IW", "value": 5.14}, {"measurement": "IC50", "setting": "T4 lymphocytes [2]; CEM-IW", "value": 221, "unit": "µM"}]}, {"compound": "O=S(=O)([O-])c1ccc([O-])c2ncccc12.O=S(=O)([O-])c1ccc([O-])c2ncccc12.O=S(=O)([O-])c1ccc([O-])c2ncccc12.[Ga+3].[K+].[K+].[K+]", "note": "[Tris-(5-sulfono-8-hydroxyquinoline)gallium(III)-potassium salt]", "values": [{"measurement": "T/C (survival time of treated versus control animals)", "setting": "sarcoma 180", "value": 153, "unit": "%"}]}, {"compound": "Cc1cn([C@H]2C[C@H](N=[N+]=[N-])[C@@H](CO)O2)c(=O)[nH]c1=O", "note": "[AZT, 3'-Azido-3'-deoxythymidine]", "values": [{"measurement": "TI = IC50 /EC50", "setting": "[4]; [8]", "value": 1027}, {"measurement": "EC50", "setting": "[4]; [8]", "value": 0.186, "unit": "µM"}, {"measurement": "TI = IC50 /EC50", "setting": "[4]; [9]", "value": 3680}, {"measurement": "EC50", "setting": "[4]; [9]", "value": 0.187, "unit": "µM"}, {"measurement": "IC50", "setting": "T4 lymphocytes [5]; [8]", "value": 191, "unit": "µM"}, {"measurement": "IC50", "setting": "T4 lymphocytes [5]; [9]", "value": 689, "unit": "µM"}]}, {"compound": "O=[N+]([O-])[O-].O=[N+]([O-])[O-].O=[N+]([O-])[O-].[Ga+3]", "note": "[gallium nitrate]", "values": [{"measurement": "antitumor activity", "setting": "[6]", "value": "had shown antitumor activity"}, {"measurement": "antitumor activity", "setting": "refractory lymphomas", "value": "exhibits antitumor activity"}, {"measurement": "inhibition of reverse transcriptase", "setting": "[7]", "value": "inhibits the reverse transcriptase"}]}, {"compound": "trans-Dichlorotetrakis-(benzimidazole)gallium(III) chloride [[(bim)4 GaCl2]Cl]", "values": [{"measurement": "EC50", "setting": "[1]; CEM-6", "value": 5.01, "unit": "µM"}, {"measurement": "TI = IC50 /EC50", "setting": "[1]; CEM-6", "value": 76.9}, {"measurement": "IC50", "setting": "T4 lymphocytes [2]; CEM-6", "value": 385, "unit": "µM"}]}]}
